In patent US20080161366A1, “AMINOALKYL SUBSTITUTED ARYL SULFAMIDE DERIVATIVES AND METHODS OF THEIR USE” (Wyeth, priority 2006, published 2008):
Where a name gives a salt, the structure may show the parent alone.

Each molecule was assayed against human norepinephrine transporter (hNET) (Homo sapiens, UniProt P23975) (assay: hNET uptake, Protocol B: cell based norepinephrine reuptake assay using recombinant hNET (MDCK-Net6 cells)). Conditions: NE uptake (Protocol B) IC50 (nM), MDCK-Net6 cells, 3H-NE 16 nM.
Chain of human norepinephrine transporter (hNET) (P23975 whole entry): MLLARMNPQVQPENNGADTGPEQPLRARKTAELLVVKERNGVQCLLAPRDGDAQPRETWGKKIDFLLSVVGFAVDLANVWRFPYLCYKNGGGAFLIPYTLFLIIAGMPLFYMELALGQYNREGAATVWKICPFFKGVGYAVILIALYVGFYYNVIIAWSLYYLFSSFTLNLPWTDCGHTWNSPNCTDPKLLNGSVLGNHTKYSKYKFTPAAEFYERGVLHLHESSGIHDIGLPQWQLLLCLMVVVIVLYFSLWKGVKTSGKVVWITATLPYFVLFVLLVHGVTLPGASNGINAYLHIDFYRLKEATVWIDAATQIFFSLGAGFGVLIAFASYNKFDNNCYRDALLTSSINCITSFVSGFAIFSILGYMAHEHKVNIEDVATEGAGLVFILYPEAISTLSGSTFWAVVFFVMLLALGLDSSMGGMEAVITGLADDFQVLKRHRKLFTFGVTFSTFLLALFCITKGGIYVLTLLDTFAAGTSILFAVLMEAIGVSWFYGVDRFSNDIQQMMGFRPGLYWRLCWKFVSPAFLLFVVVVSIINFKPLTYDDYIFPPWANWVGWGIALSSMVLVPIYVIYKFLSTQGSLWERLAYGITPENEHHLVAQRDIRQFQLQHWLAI

`CNCCCCN1c2ccccc2N(c2ccc(F)c(F)c2)S1(=O)=O` [Example 110, 4-[3-(3,4-difluorophenyl)-2,2-dioxido-2,1,3-benzothiadiazol-1(3H)-yl]-N-methylbutan-1-amine] was tested. Which IC50 did it give?
Its IC50 is 39 nM.

How did the IC50 turn out when `CCNCCCN1c2ccccc2N(c2ccc(F)cc2F)S1(=O)=O` [Example 119, 3-[3-(2,4-difluorophenyl)-2,2-dioxido-2,1,3-benzothiadiazol-1(3H)-yl]-N-ethylpropan-1-amine hydrochloride] was run?
Its IC50 is 77 nM.

`NCCCCCN1c2ccccc2N(c2ccccc2F)S1(=O)=O` [Example 65, 5-[3-(2-fluorophenyl)-2,2-dioxido-2,1,3-benzothiadiazol-1(3H)-yl]pentan-1-amine] was tested. Which IC50 did it give?
Its IC50 is 14.1 nM.

With `CNCCCN1c2ccccc2N(c2ccc(F)c(F)c2)S1(=O)=O` [Example 109, 3-[3-(3,4-difluorophenyl)-2,2-dioxido-2,1,3-benzothiadiazol-1(3H)-yl]-N-methylpropan-1-amine] as the molecule, how does the IC50 read?
The IC50 was 20 nM.

With `CNCCCN1c2ccccc2N(c2ccc(F)cc2C)S1(=O)=O` [Example 62, 3-[3-(4-fluoro-2-methylphenyl)-2,2-dioxido-2,1,3-benzothiadiazol-1(3H)-yl]-N-methylpropan-1-amine] as the molecule, how does the IC50 read?
Its IC50 is 50.9 nM.

How did the IC50 turn out when `CN(C)CCCCCN1c2ccccc2N(c2ccc(F)cc2F)S1(=O)=O` [Example 117, 5-[3-(2,4-difluorophenyl)-2,2-dioxido-2,1,3-benzothiadiazol-1(3H)-yl]-N,N-dimethylpentan-1-amine hydrochloride] was run?
The IC50 was 7190 nM.

How did the IC50 turn out when `CNCCCN1c2ccc(F)cc2N(c2ccccc2)S1(=O)=O` [Example 44, 3-(5-fluoro-2,2-dioxido-3-phenyl-2,1,3-benzothiadiazol-1(3H)-yl)-N-methylpropan-1-amine] was run?
Its IC50 is 4.26 nM.

`CNCCCN1c2ccc(Cl)cc2N(c2ccccc2)S1(=O)=O` [Example 36, 3-(5-Chloro-2,2-dioxido-3-phenyl-2,1,3-benzothiadiazol-1(3H)-yl)-N-methylpropan-1-amine] was tested. Which IC50 did it give?
Its IC50 is 11.3 nM.

For `CNCCCN1c2ccccc2N(c2cccc(Br)c2)S1(=O)=O` [Example 53, 3-[3-(3-bromophenyl)-2,2-dioxido-2,1,3-benzothiadiazol-1(3H)-yl]-N-methylpropan-1-amine hydrochloride], which IC50 is on record?
The IC50 was 24.5 nM.

How did the IC50 turn out when `O=S1(=O)N(CCCNC2CCNCC2)c2ccccc2N1c1ccccc1` [Example 132, N-[3-(2,2-dioxido-3-phenyl-2,1,3-benzothiadiazol-1(3H)-yl)propyl]piperidin-4-amine dihydrochloride] was run?
Its IC50 is 267 nM.

How did the IC50 turn out when `CNCCCN1c2ccccc2N(c2ncccc2C)S1(=O)=O` [Example 27, N-methyl-3-[3-(3-methylpyridin-2-yl)-2,2-dioxido-2,1,3-benzothiadiazol-1(3H)-yl]propan-1-amine hydrochloride] was run?
The IC50 was 11.7 nM.

Which IC50 does the source give for `CNCCCN1c2ccccc2N(c2ccc(C)cc2)S1(=O)=O` [Example 8, N-methyl-3-[3-(4-methylphenyl)-2,2-dioxido-2,1,3-benzothiadiazol-1(3H)-yl]propan-1-amine] here?
The IC50 was 35.7 nM.

With `CNCCCCN1c2ccccc2N(c2ccccc2)S1(=O)=O` [Example 18, 4-(2,2-dioxido-3-phenyl-2,1,3-benzothiadiazol-1(3H)-yl)-N-methylbutan-1-amine] as the molecule, how does the IC50 read?
Its IC50 is 0.3 nM.

With `O=S1(=O)N(CCCNC2CC2)c2ccccc2N1c1ccccc1F` [Example 97, N-{3-[3-(2-fluorophenyl)-2,2-dioxido-2,1,3-benzothiadiazol-1(3H)-yl]propyl}cyclopropanamine] as the molecule, how does the IC50 read?
Its IC50 is 21 nM.

`NCCCN1c2ccccc2N(c2ccc(F)cc2F)S1(=O)=O` [Example 72, 3-[3-(2,4-difluorophenyl)-2,2-dioxido-2,1,3-benzothiadiazol-1(3H)-yl]propan-1-amine hydrochloride] was tested. Which IC50 did it give?
Its IC50 is 259 nM.

Which IC50 does the source give for `CNCCCN1c2c(F)cccc2N(c2ccccc2F)S1(=O)=O` [Example 76, 3-[7-fluoro-3-(2-fluorophenyl)-2,2-dioxido-2,1,3-benzothiadiazol-1(3H)-yl]-N-methylpropan-1-amine] here?
The IC50 was 5.24 nM.

`CCNCCCN1c2ccccc2N(c2ccc(F)c(F)c2F)S1(=O)=O` [Example 112, 3-[2,2-dioxido-3-(2,3,4-trifluorophenyl)-2,1,3-benzothiadiazol-1(3H)-yl]-N-ethylpropan-1-amine] was tested. Which IC50 did it give?
The IC50 was 2770 nM.

`CNCCCN1c2ccccc2N(c2cccc(Cl)c2)S1(=O)=O` [Example 68, 3-[3-(3-Chlorophenyl)-2,2-dioxido-2,1,3-benzothiadiazol-1(3H)-yl]-N-methylpropan-1-amine hydrochloride] was tested. Which IC50 did it give?
Its IC50 is 84.1 nM.

Which IC50 does the source give for `O=S1(=O)N(CCCNC2CCC2)c2ccccc2N1c1c(F)cccc1F` [Example 128, N-{3-[3-(2,6-difluorophenyl)-2,2-dioxido-2,1,3-benzothiadiazol-1(3H)-yl]propyl}cyclobutanamine hydrochloride] here?
Its IC50 is 222 nM.

For `CNCCCN1c2ccccc2N(c2cccc(OC(F)(F)F)c2)S1(=O)=O` [Example 49, 3-{2,2-dioxido-3-[3-(trifluoromethoxy)phenyl]-2,1,3-benzothiadiazol-1(3H)-yl}-N-methylpropan-1-amine hydrochloride], which IC50 is on record?
The IC50 was 147 nM.

With `CNCCCCN1c2ccccc2N(c2ccc(O)cc2F)S1(=O)=O` [Example 93, 3-fluoro-4-{3-[4-(methylamino)butyl]-2,2-dioxido-2,1,3-benzothiadiazol-1(3H)-yl}phenol hydrochloride] as the molecule, how does the IC50 read?
Its IC50 is 3 nM.

For `CN(C)CCCN1c2ccccc2N(c2ccc(F)cc2F)S1(=O)=O` [Example 118, 3-[3-(2,4-difluorophenyl)-2,2-dioxido-2,1,3-benzothiadiazol-1(3H)-yl]-N,N-dimethylpropan-1-amine hydrochloride], which IC50 is on record?
The IC50 was 153 nM.

For `Cc1cc(F)ccc1N1c2ccccc2N(CCCN)S1(=O)=O` [Example 63, 3-[3-(4-fluoro-2-methylphenyl)-2,2-dioxido-2,1,3-benzothiadiazol-1(3H)-yl]propan-1-amine], which IC50 is on record?
The IC50 was 324 nM.

`CN(C)CCCCN1c2ccccc2N(c2ccc(F)cc2F)S1(=O)=O` [Example 120, 4-[3-(2,4-difluorophenyl)-2,2-dioxido-2,1,3-benzothiadiazol-1(3H)-yl]-N,N-dimethylbutan-1-amine hydrochloride] was tested. Which IC50 did it give?
The IC50 was 411 nM.

`CNCCCN1c2c(F)cccc2N(c2cccc(F)c2)S1(=O)=O` [Example 42, 3-[7-fluoro-3-(3-fluorophenyl)-2,2-dioxido-2,1,3-benzothiadiazol-1(3H)-yl]-N-methylpropan-1-amine] was tested. Which IC50 did it give?
Its IC50 is 86.3 nM.

For `O=S1(=O)N(CCCCNC2CCC2)c2ccccc2N1c1c(F)cccc1F` [Example 124, N-{4-[3-(2,6-difluorophenyl)-2,2-dioxido-2,1,3-benzothiadiazol-1(3H)-yl]butyl}cyclobutanamine hydrochloride], which IC50 is on record?
The IC50 was 132 nM.

Which IC50 does the source give for `CN(C)CCCN1c2c(F)cccc2N(c2ccc(F)cc2F)S1(=O)=O` [Example 80, 3-[3-(2,4-Difluorophenyl)-7-fluoro-2,2-dioxido-2,1,3-benzothiadiazol-1(3H)-yl]-N,N-dimethylpropan-1-amine hydrochloride] here?
Its IC50 is 448 nM.

Which IC50 does the source give for `CNCCCN1c2ccccc2N(c2cccnc2)S1(=O)=O` [Example 34, 3-(2,2-dioxido-3-pyridin-3-yl-2,1,3-benzothiadiazol-1(3H)-yl)-N-methylpropan-1-amine hydrochloride] here?
Its IC50 is 85 nM.

How did the IC50 turn out when `CNCCCN1c2cccc(F)c2N(c2ccc(F)cc2F)S1(=O)=O` [Example 79, 3-[3-(2,4-Difluorophenyl)-4-fluoro-2,2-dioxido-2,1,3-benzothiadiazol-1(3H)-yl]-N-methylpropan-1-amine hydrochloride] was run?
The IC50 was 9 nM.

With `CNCCCCN1c2ccccc2N(c2c(F)cc(F)cc2F)S1(=O)=O` [Example 81, 4-[2,2-Dioxido-3-(2,4,6-trifluorophenyl)-2,1,3-benzothiadiazol-1(3H)-yl]-N-methylbutan-1-amine hydrochloride] as the molecule, how does the IC50 read?
Its IC50 is 19 nM.

For `CCNCCCCN1c2ccccc2N(c2ccc(F)cc2F)S1(=O)=O` [Example 121, 4-[3-(2,4-difluorophenyl)-2,2-dioxido-2,1,3-benzothiadiazol-1(3H)-yl]-N-ethylbutan-1-amine hydrochloride], which IC50 is on record?
Its IC50 is 1500 nM.

Which IC50 does the source give for `CNCCCN1c2ccccc2N(c2ccc(C)cn2)S1(=O)=O` [Example 26, N-methyl-3-[3-(5-methylpyridin-2-yl)-2,2-dioxido-2,1,3-benzothiadiazol-1(3H)-yl]propan-1-amine hydrochloride] here?
Its IC50 is 57.1 nM.

With `CC(C)NCCCN1c2ccccc2N(c2c(F)cccc2F)S1(=O)=O` [Example 127, 3-[3-(2,6-difluorophenyl)-2,2-dioxido-2,1,3-benzothiadiazol-1(3H)-yl]-N-isopropylpropan-1-amine hydrochloride] as the molecule, how does the IC50 read?
Its IC50 is 148 nM.

Which IC50 does the source give for `CNCCCCN1c2ccccc2N(c2c(F)cccc2F)S1(=O)=O` [Example 83, 4-[3-(2,6-Difluorophenyl)-2,2-dioxido-2,1,3-benzothiadiazol-1(3H)-yl]-N-methylbutan-1-amine hydrochloride] here?
Its IC50 is 2 nM.

For `NCCCN1c2ccccc2N(c2c(F)cc(F)cc2F)S1(=O)=O` [Example 70, 3-[2,2-Dioxido-3-(2,4,6-trifluorophenyl)-2,1,3-benzothiadiazol-1(3H)-yl]propan-1-amine hydrochloride], which IC50 is on record?
The IC50 was 277 nM.

With `CNCCCN1c2cc(F)ccc2N(c2ccccc2)S1(=O)=O` [Example 35, 3-(6-fluoro-2,2-dioxido-3-phenyl-2,1,3-benzothiadiazol-1(3H)-yl)-N-methylpropan-1-amine] as the molecule, how does the IC50 read?
The IC50 was 20.6 nM.

How did the IC50 turn out when `CNCCCN1c2ccccc2N(c2ccccc2OC)S1(=O)=O` [Example 9, 3-[3-(2-methoxyphenyl)-2,2-dioxido-2,1,3-benzothiadiazol-1(3H)-yl]-N-methylpropan-1-amine] was run?
Its IC50 is 12.6 nM.

Which IC50 does the source give for `CNCCCCCCN1c2ccccc2N(c2ccccc2F)S1(=O)=O` [Example 101, 6-[3-(2-fluorophenyl)-2,2-dioxido-2,1,3-benzothiadiazol-1(3H)-yl]-N-methylhexan-1-amine] here?
Its IC50 is 1160 nM.

How did the IC50 turn out when `CNCCCN1c2ccccc2N(c2ccc(OC)cc2)S1(=O)=O` [Example 7, 3-[3-(4-methoxyphenyl)-2,2-dioxido-2,1,3-benzothiadiazol-1(3H)-yl]-N-methylpropan-1-amine] was run?
The IC50 was 1780 nM.
